{"source": "patent US20080242688A1", "about": "“Method 741” (ASTRAZENECA AB, priority 2007, published 2008)", "test": "Multiple dose PK/TK, dog", "type": "in vivo", "set-up": "AUC/dose: unit not given beside the values", "settings": "for AUC / Cmax / Tmax / AUC at 7 day / Cmax at 7 day / Tmax at 7 day / AUC at 35 day / Cmax at 35 day / Tmax at 35 day: Beagle, dog, in vivo, po", "excerpt": "This section provides a summary of the pharmacokinetic and metabolism properties of AZD0328 derived from in vivo studies. […] The derived PK/TK parameters from these studies are presented in Table 4 for single dose studies (DMR4, 0619LR, 20030191PCR, DMO16, DMB10, DMW12, 50190, 0190DD and 03.330/1), and are presented in Table 5 multiple dose PK/TK studies (DMR4, 0612AR, DMB15, 50190, 0190DD and 0295AD).", "key": {"[1]": {"settings": "female, 8.65 mg/kg, dog 3F, 0295AD, 8.65 mg/kg (40 μmol/kg) split in two 6 h apart, capsules fed, day 7"}, "[2]": {"settings": "female, 8.65 mg/kg, dog 3F, 0295AD, 8.65 mg/kg (40 μmol/kg) split in two 6 h apart, capsules fed, day 35"}, "[3]": {"settings": "female, 17.3 mg/kg, dog 3F, 0295AD, 17.3 mg/kg (80 μmol/kg) split in two 6 h apart, capsules fed, day 7"}, "[4]": {"settings": "female, 17.3 mg/kg, dog 3F, 0295AD, 17.3 mg/kg (80 μmol/kg) split in two 6 h apart, capsules fed, day 35"}, "[5]": {"settings": "female, 26 mg/kg, dog 6F, 0295AD, 26.0 mg/kg (120 μmol/kg) split into 17.3 and 8.7 mg/kg 6 h apart, capsules fed, day 35"}, "[6]": {"settings": "female, 34.6 mg/kg, dog 6F, 0295AD, 34.6 mg/kg (160 μmol/kg) split in two 6 h apart, capsules fed, day 7"}, "[7]": {"settings": "male, 8.65 mg/kg, dog 3M, 0295AD, 8.65 mg/kg (40 μmol/kg) split in two 6 h apart, capsules fed, day 7"}, "[8]": {"settings": "male, 8.65 mg/kg, dog 3M, 0295AD, 8.65 mg/kg (40 μmol/kg) split in two 6 h apart, capsules fed, day 35"}, "[9]": {"settings": "male, 17.3 mg/kg, dog 3M, 0295AD, 17.3 mg/kg (80 μmol/kg) split in two 6 h apart, capsules fed, day 7"}, "[10]": {"settings": "male, 17.3 mg/kg, dog 3M, 0295AD, 17.3 mg/kg (80 μmol/kg) split in two 6 h apart, capsules fed, day 35"}, "[11]": {"settings": "male, 26 mg/kg, dog 6M, 0295AD, 26.0 mg/kg (120 μmol/kg) split into 17.3 and 8.7 mg/kg 6 h apart, capsules fed, day 35"}, "[12]": {"settings": "male, 34.6 mg/kg, dog 6M, 0295AD, 34.6 mg/kg (160 μmol/kg) split in two 6 h apart, capsules fed, day 7"}}, "note": "Where “and” joins values, the source holds several entries; their conditions need not be identical. Equal values may be shown once."}
{"smiles": "c1cnc2c(c1)C[C@@]1(CN3CCC1CC3)O2", "note": "[AZD0328, (R)-Spiro[1-azabicyclo[2.2.2]octane-3,2′(3′H)-furo[2,3-b]pyridine]]", "values": [{"measurement": "AUC/dose", "setting": "dog 2F+2M, 0190DD, 34.6 mg/kg (160 μmol/kg) split in two 6 h apart, solution fasted, day 1", "value": "0.141 ± 0.014"}, {"measurement": "AUC/dose", "setting": "dog 2F+2M, 0190DD, 34.6 mg/kg (160 μmol/kg) split in two 6 h apart, solution fasted, day 7", "value": "0.208 ± 0.088"}, {"measurement": "AUC/dose", "setting": "dog 2F+2M, 0190DD, 138 mg/kg (640 μmol/kg) split in two 6 h apart, capsules fed, day 1", "value": "0.0859 ± 0.0530"}, {"measurement": "AUC/dose", "setting": "dog 2F+2M, 0190DD, 138 mg/kg (640 μmol/kg) split in two 6 h apart, capsules fed, day 7", "value": "0.0517 ± 0.0206"}, {"measurement": "AUC/dose", "setting": "dog 3F, 0295AD, 8.65 mg/kg (40 μmol/kg) split in two 6 h apart, capsules fed, day 7", "value": "0.113 ± 0.038"}, {"measurement": "AUC/dose", "setting": "dog 3F, 0295AD, 8.65 mg/kg (40 μmol/kg) split in two 6 h apart, capsules fed, day 35", "value": "0.107 ± 0.017"}, {"measurement": "AUC/dose", "setting": "dog 3F, 0295AD, 17.3 mg/kg (80 μmol/kg) split in two 6 h apart, capsules fed, day 7", "value": "0.246 ± 0.092"}, {"measurement": "AUC/dose", "setting": "dog 3F, 0295AD, 17.3 mg/kg (80 μmol/kg) split in two 6 h apart, capsules fed, day 35", "value": "0.233 ± 0.049"}, {"measurement": "AUC/dose", "setting": "dog 3M, 0295AD, 8.65 mg/kg (40 μmol/kg) split in two 6 h apart, capsules fed, day 7", "value": "0.100 ± 0.051"}, {"measurement": "AUC/dose", "setting": "dog 3M, 0295AD, 8.65 mg/kg (40 μmol/kg) split in two 6 h apart, capsules fed, day 35", "value": "0.145 ± 0.039"}, {"measurement": "AUC/dose", "setting": "dog 3M, 0295AD, 17.3 mg/kg (80 μmol/kg) split in two 6 h apart, capsules fed, day 7", "value": "0.223 ± 0.047"}, {"measurement": "AUC/dose", "setting": "dog 3M, 0295AD, 17.3 mg/kg (80 μmol/kg) split in two 6 h apart, capsules fed, day 35", "value": "0.196 ± 0.008"}, {"measurement": "AUC/dose", "setting": "dog 6F, 0295AD, 26.0 mg/kg (120 μmol/kg) split into 17.3 and 8.7 mg/kg 6 h apart, capsules fed, day 35", "value": "0.133 ± 0.036"}, {"measurement": "AUC/dose", "setting": "dog 6M, 0295AD, 26.0 mg/kg (120 μmol/kg) split into 17.3 and 8.7 mg/kg 6 h apart, capsules fed, day 35", "value": "0.174 ± 0.029"}, {"measurement": "AUC/dose", "setting": "dog 6M, 0295AD, 34.6 mg/kg (160 μmol/kg) split in two 6 h apart, capsules fed, day 7", "value": "0.152 ± 0.075"}, {"measurement": "AUC", "setting": "[1]", "value": "981 ng·h/mL and 4.53 µM·h"}, {"measurement": "Cmax", "setting": "[1]", "value": "302 ng/mL and 1.39 µM"}, {"measurement": "Tmax", "setting": "[1]", "value": "1 to 7", "unit": "h"}, {"measurement": "AUC", "setting": "[2]", "value": "924 ng·h/mL and 4.27 µM·h"}, {"measurement": "Cmax", "setting": "[2]", "value": "270 ng/mL and 1.25 µM"}, {"measurement": "Tmax", "setting": "[2]", "value": "1 to 9", "unit": "h"}, {"measurement": "AUC at 7 day", "setting": "[3]", "value": "2130 ng·h/mL and 9.83 µM·h"}, {"measurement": "Cmax at 7 day", "setting": "[3]", "value": "850 ng/mL and 3.93 µM"}, {"measurement": "Tmax at 7 day", "setting": "[3]", "value": "0.5 to 6.5", "unit": "h"}, {"measurement": "AUC at 35 day", "setting": "[4]", "value": "2020 ng·h/mL and 9.33 µM·h"}, {"measurement": "Cmax at 35 day", "setting": "[4]", "value": "439 ng/mL and 2.03 µM"}, {"measurement": "Tmax at 35 day", "setting": "[4]", "value": "1 to 9", "unit": "h"}, {"measurement": "AUC", "setting": "[5]", "value": "3460 ng·h/mL and 16 µM·h"}, {"measurement": "Cmax", "setting": "[5]", "value": "1190 ng/mL and 5.49 µM"}, {"measurement": "Tmax", "setting": "[5]", "value": "1 to 8.5", "unit": "h"}, {"measurement": "AUC", "setting": "[6]", "value": 19.2, "unit": "µM·h"}, {"measurement": "AUC at 7 day", "setting": "[6]", "value": "4160 ± 1990", "unit": "ng·h/mL"}, {"measurement": "Cmax", "setting": "[6]", "value": 8.69, "unit": "µM"}, {"measurement": "Cmax at 7 day", "setting": "[6]", "value": "1880 ± 1060", "unit": "ng/mL"}, {"measurement": "Tmax at 7 day", "setting": "[6]", "value": "0.5 to 6.5", "unit": "h"}, {"measurement": "AUC at 7 day", "setting": "[7]", "value": "868 ng·h/mL and 4 µM·h"}, {"measurement": "Cmax at 7 day", "setting": "[7]", "value": "286 ng/mL and 1.32 µM"}, {"measurement": "Tmax at 7 day", "setting": "[7]", "value": "0.5 to 7", "unit": "h"}, {"measurement": "AUC at 35 day", "setting": "[8]", "value": "1250 ng·h/mL and 5.79 µM·h"}, {"measurement": "Cmax at 35 day", "setting": "[8]", "value": "373 ng/mL and 1.73 µM"}, {"measurement": "Tmax at 35 day", "setting": "[8]", "value": "8.5 to 9", "unit": "h"}, {"measurement": "AUC at 7 day", "setting": "[9]", "value": "1930 ng·h/mL and 8.92 µM·h"}, {"measurement": "Cmax at 7 day", "setting": "[9]", "value": "619 ng/mL and 2.86 µM"}, {"measurement": "Tmax at 7 day", "setting": "[9]", "value": "6.5 to 7", "unit": "h"}, {"measurement": "AUC at 35 day", "setting": "[10]", "value": "1690 ng·h/mL and 7.85 µM·h"}, {"measurement": "Cmax at 35 day", "setting": "[10]", "value": "608 ng/mL and 2.81 µM"}, {"measurement": "Tmax at 35 day", "setting": "[10]", "value": "1 to 9", "unit": "h"}, {"measurement": "AUC", "setting": "[11]", "value": "4530 ng·h/mL and 20.9 µM·h"}, {"measurement": "Cmax", "setting": "[11]", "value": 8.16, "unit": "µM"}, {"measurement": "Tmax", "setting": "[11]", "value": "0.5 to 2", "unit": "h"}, {"measurement": "AUC", "setting": "[12]", "value": "5260 ng·h/mL and 24.3 µM·h"}, {"measurement": "Cmax", "setting": "[12]", "value": "1910 ng/mL and 8.82 µM"}, {"measurement": "Tmax", "setting": "[12]", "value": "0.5 to 7", "unit": "h"}]}
